# Reference: patent US8507478B2, “Oxazolidinyl antibiotics” (Actelion Pharmaceuticals Ltd., priority 2008, dated 2013)
# System: M. catarrhalis A894
# Test: MIC determination by microdilution in cation-adjusted Mueller-Hinton Broth
# Format: cell-based
# Settings: Moraxella catarrhalis, microdilution method, CLSI M7-A7
# Method: Minimal inhibitory concentrations (MICs; mg/l) were determined in cation-adjusted Mueller-Hinton Broth by a microdilution method following the description given in “Methods for Dilution Antimicrobial Susceptibility Tests for Bacteria that Grow Aerobically”, Approved standard, 7th ed., Clinical and Laboratory Standards Institute (CLSI) Document M7-A7, Wayne, Pa., USA, 2006. All Example compounds were tested against several Gram positive and Gram negative bacteria such as S. aureus, E. faecalis, S. pneumoniae, M catarrhalis, A. baumanii, E.coli or P. aeruginosa.
row,SMILES,MIC [µg/mL]
1,"COc1ccc2ccc(=O)n(CC3CN(C[C@@H]4CN(c5ccc6c(c5)OCCO6)C(=O)O4)C3)c2c1 [Example 3, 1-{1-[(R)-3-(2,3-dihydro-benzo[1,4]dioxin-6-yl)-2-oxo-oxazolidin-5-ylmethyl]-azetidin-3-ylmethyl}-7-methoxy-1H-quinolin-2-one]",0.063
2,"COc1ccc2ncc(=O)n(CC3CN(CC[C@@H]4CN(c5ccc6c(c5)NC(=O)CS6)C(=O)O4)C3)c2c1 [Example 6, 6-((R)-5-{2-[3-(7-methoxy-2-oxo-2H-quinoxalin-1-ylmethyl)-azetidin-1-yl]-ethyl}-2-oxo-oxazolidin-3-yl)-4H-benzo[1,4]thiazin-3-one]",≤ 0.031
3,"COc1ccc2ccc(=O)n(CC3CCN(C[C@@H]4CN(c5ccc6c(c5)NC(=O)CS6)C(=O)O4)CC3)c2c1 [Example 7, 6-{(R)-5-[4-(7-methoxy-2-oxo-2H-quinolin-1-ylmethyl)-piperidin-1-ylmethyl]-2-oxo-oxazolidin-3-yl}-4H-benzo[1,4]thiazin-3-one]",≤ 0.031
4,"COc1ccc2ccc(=O)n(CC3CCN(C[C@@H]4CN(c5ccc6c(c5)OCCO6)C(=O)O4)CC3)c2c1 [Example 8, 1-{1-[(R)-3-(2,3-dihydro-benzo[1,4]dioxin-6-yl)-2-oxo-oxazolidin-5-ylmethyl]-piperidin-4-ylmethyl}-7-methoxy-1H-quinolin-2-one]",1
5,"COc1ccc2ccc(=O)n(CC3CCN(C[C@@H]4CN(c5ccc(C)c(F)c5)C(=O)O4)CC3)c2c1 [Example 9, 1-{1-[(R)-3-(3-fluoro-4-methyl-phenyl)-2-oxo-oxazolidin-5-ylmethyl]-piperidin-4-ylmethyl}-7-methoxy-1H-quinolin-2-one]",1
6,"COc1ccc2c(c1)N(CC1CN(C[C@@H]3CN(c4ccc5c(c4)NC(=O)CS5)C(=O)O3)C1)C(=O)CC2 [Example 10, 6-{(R)-5-[3-(7-methoxy-2-oxo-3,4-dihydro-2H-quinolin-1-ylmethyl)azetidin-1-ylmethyl]-2-oxo-oxazolidin-3-yl}-4H-benzo[1,4]thiazin-3-one]",≤ 0.031
7,"COc1ccc2c(c1)N(CC1CN(C[C@H]3CN(c4ccc5c(c4)NC(=O)CS5)C(=O)O3)C1)C(=O)CC2 [Example 11, 6-{(S)-5-[3-(7-methoxy-2-oxo-3,4-dihydro-2H-quinolin-1-ylmethyl)azetidin-1-ylmethyl]-2-oxo-oxazolidin-3-yl}-4H-benzo[1,4]thiazin-3-one]",≤ 0.031
8,"COc1ccc2c(c1)N(CC1CN(C[C@@H]3CN(c4ccc5c(c4)NC(=O)CO5)C(=O)O3)C1)C(=O)CC2 [Example 12, 6-{(R)-5-[3-(7-methoxy-2-oxo-3,4-dihydro-2H-quinolin-1-ylmethyl)azetidin-1-ylmethyl]-2-oxo-oxazolidin-3-yl}-4H-benzo[1,4]oxazin-3-one]",0.5
9,"COc1ccc2ncc(=O)n(CC3CN(C[C@@H]4CN(c5ccc6c(c5)NC(=O)CO6)C(=O)O4)C3)c2c1 [Example 13, 6-{(R)-5-[3-(7-methoxy-2-oxo-2H-quinoxalin-1-ylmethyl)-azetidin-1-ylmethyl]-2-oxo-oxazolidin-3-yl}-4H-benzo[1,4]oxazin-3-one]",≤ 0.031
10,"COc1ccc2ncc(=O)n(CC3CN(C[C@@H]4CN(c5ccc6c(c5)OCCO6)C(=O)O4)C3)c2c1 [Example 14, 1-{1-[(R)-3-(2,3-dihydro-benzo[1,4]dioxin-6-yl)-2-oxo-oxazolidin-5-ylmethyl]-azetidin-3-ylmethyl}-7-methoxy-1H-quinoxalin-2-one]",0.25
11,"COc1ccc2ncc(=O)n(C3CCN(C[C@@H]4CN(c5ccc6c(c5)NC(=O)CS6)C(=O)O4)CC3)c2n1 [Example 15, 6-methoxy-4-[1-{(R)-2-oxo-3-(3-oxo-3,4-dihydro-2H-benzo[1,4]thiazin-6-yl)-oxazolidin-5-ylmethyl]-piperidin-4-yl}-4H-pyrido[2,3-b]pyrazin-3-one]",≤ 0.031
12,"COc1ccc2ncc(=O)n(C3CCN(C[C@@H]4CN(c5ccc6c(c5)NC(=O)CO6)C(=O)O4)CC3)c2n1 [Example 16, 6-methoxy-4-{1-[(R)-2-oxo-3-(3-oxo-3,4-dihydro-2H-benzo[1,4]oxazin-6-yl)-oxazolidin-5-ylmethyl]-piperidin-4-yl}-4H-pyrido[2,3-b]pyrazin-3-one]",≤ 0.031
13,"COc1ccc2ccc(=O)n(C[C@@H]3CCN(C[C@@H]4CN(c5ccc6c(c5)NC(=O)CS6)C(=O)O4)C3)c2c1 [Example 17, 6-{(R)-5-[(R)-3-(7-methoxy-2-oxo-2H-quinolin-1-ylmethyl)-pyrrolidin-1-ylmethyl]-2-oxo-oxazolidin-3-yl}-4H-benzo[1,4]thiazin-3-one]",≤ 0.031
14,"COc1ccc2ncc(=O)n(C3CCN(C[C@@H]4CN(c5ccc6c(c5)OCCO6)C(=O)O4)CC3)c2n1 [Example 22, 4-{1-[(R)-3-(2,3-dihydro-benzo[1,4]dioxin-6-yl)-2-oxo-oxazolidin-5-ylmethyl]-piperidin-4-yl}-6-methoxy-4H-pyrido[2,3-b]pyrazin-3-one]",≤ 0.031
15,"COc1ccc2ncc(=O)n(C3CCN(CC[C@H]4CN(c5ccc6c(c5)NC(=O)CS6)C(=O)O4)CC3)c2n1 [Example 23, 6-methoxy-4-(1-{2-[(S)-2-oxo-3-(3-oxo-3,4-dihydro-2H-benzo[1,4]thiazin-6-yl)-oxazolidin-5-yl]-ethyl}-piperidin-4-yl)-4H-pyrido[2,3-b]pyrazin-3-one]",≤ 0.031
16,"COc1ccc2ncc(=O)n(C3CCN(C[C@@H]4CN(c5ccc(C)c(F)c5)C(=O)O4)CC3)c2n1 [Example 24, 4-{1-[(R)-3-(3-fluoro-4-methyl-phenyl)-2-oxo-oxazolidin-5-ylmethyl]-piperidin-4-yl}-6-methoxy-4H-pyrido[2,3-b]pyrazin-3-one]",≤ 0.031
17,"COc1ccc2ncc(=O)n(C3CCN(CC[C@@H]4CN(c5ccc6c(c5)NC(=O)CS6)C(=O)O4)CC3)c2n1 [Example 25, 6-methoxy-4-(1-{2-[(R)-2-oxo-3-(3-oxo-3,4-dihydro-2H-benzo[1,4]thiazin-6-yl)-oxazolidin-5-yl]-ethyl}-piperidin-4-yl)-4H-pyrido[2,3-b]pyrazin-3-one]",≤ 0.031

# Results, then the compound that gave them:
row,MIC [µg/mL],SMILES
1,≤ 0.031,"COc1ccc2ccc(=O)n(CC3(O)CCN(C[C@@H]4CN(c5ccc6c(c5)NC(=O)CS6)C(=O)O4)C3)c2c1 (mixture of isomers) [Example 18, 6-{(R)-5-[(RS)-3-hydroxy-3-(7-methoxy-2-oxo-2H-quinolin-1-ylmethyl)pyrrolidin-1-ylmethyl]-2-oxo-oxazolidin-3-yl}-4H-benzo[1,4]thiazin-3-one]"
2,≤ 0.031,"COc1ccc2ccc(=O)n(CC3(O)CCN(C[C@H]4CN(c5ccc6c(c5)NC(=O)CS6)C(=O)O4)C3)c2c1 (mixture of isomers) [Example 19, 6-{(S)-5-[(RS)-3-hydroxy-3-(7-methoxy-2-oxo-2H-quinolin-1-ylmethyl)pyrrolidin-1-ylmethyl]-2-oxo-oxazolidin-3-yl}-4H-benzo[1,4]thiazin-3-one]"
3,≤ 0.031,"COc1ccc2ccc(=O)n(CC3(O)CCN(CC[C@H]4CN(c5ccc6c(c5)NC(=O)CS6)C(=O)O4)C3)c2c1 (mixture of isomers) [Example 20, 6-((S)-5-{2-[(RS)-3-hydroxy-3-(7-methoxy-2-oxo-2H-quinolin-1-ylmethyl)-pyrrolidin-1-yl]-ethyl}-2-oxo-oxazolidin-3-yl)-4H-benzo[1,4]thiazin-3-one]"
4,≤ 0.031,"COc1ccc2ccc(=O)n(CC3(O)CCN(CC[C@@H]4CN(c5ccc6c(c5)NC(=O)CS6)C(=O)O4)C3)c2c1 (mixture of isomers) [Example 21, 6-((R)-5-{2-[(RS)-3-hydroxy-3-(7-methoxy-2-oxo-2H-quinolin-1-ylmethyl)-pyrrolidin-1-yl]-ethyl}-2-oxo-oxazolidin-3-yl)-4H-benzo[1,4]thiazin-3-one]"
5,≤ 0.031,"COc1ccc2ccc(=O)n(CC3(O)CN(C[C@@H]4CN(c5ccc6c(c5)NC(=O)CS6)C(=O)O4)C3)c2c1 [Example 1, 6-{(R)-5-[3-hydroxy-3-(7-methoxy-2-oxo-2H-quinolin-1-ylmethyl)azetidin-1-ylmethyl]-2-oxo-oxazolidin-3-yl}-4H-benzo[1,4]thiazin-3-one]"
6,≤ 0.031,"COc1ccc2ccc(=O)n(CC3CN(C[C@@H]4CN(c5ccc6c(c5)NC(=O)CS6)C(=O)O4)C3)c2c1 [Example 2, 6-{(R)-5-[3-(7-methoxy-2-oxo-2H-quinolin-1-ylmethyl)-azetidin-1-ylmethyl]-2-oxo-oxazolidin-3-yl}-4H-benzo[1,4]thiazin-3-one]"
7,≤ 0.031,"COc1ccc2ncc(=O)n(CC3CN(C[C@@H]4CN(c5ccc6c(c5)NC(=O)CS6)C(=O)O4)C3)c2c1 [Example 4, 6-{(R)-5-[3-(7-methoxy-2-oxo-2H-quinoxalin-1-ylmethyl)-azetidin-1-ylmethyl]-2-oxo-oxazolidin-3-yl}-4H-benzo[1,4]thiazin-3-one]"
8,≤ 0.031,"COc1ccc2ccc(=O)n(CC3CN(CC[C@@H]4CN(c5ccc6c(c5)NC(=O)CS6)C(=O)O4)C3)c2c1 [Example 5, 6-((R)-5-{2-[3-(7-methoxy-2-oxo-2H-quinolin-1-ylmethyl)-azetidin-1-yl]-ethyl}-2-oxo-oxazolidin-3-yl)-4H-benzo[1,4]thiazin-3-one]"
